5 compounds from article PMC10400562, “Label-free measurement of antimicrobial peptide interactions with lipid vesicles and nanodiscs using microscale thermophoresis” (Scientific Reports, 2023) can be followed below.

The structures appear in SMILES notation. Like-named read-outs stand apart in the source and are kept apart here. Non-standard residues stand in square brackets, D forms with d. Residues, ends and D or L forms follow the SMILES beside them.

One data set relates to S. aureus ATCC 9144. The data set is classed as cell-based. As to conditions: for S. aureus MIC (ATCC 9144): ATCC 9144, 24 h. How it is done: (§1) The bacterial strains used were E. coli ATCC 25922 and S. aureus ATCC 9144. Overnight cultures and MIC assays were performed in cationic-adjusted BD BBL Mueller Hinton II Broth (MHB II, 212322, Becton, Dickson and Company, Sparks, MD, USA).
(§2) The MICs for 1–5 were determined using the CLSI M07-A9 guidelines. Working solutions were prepared in double distilled water containing max. 1% DMSO. A concentration range between 256–0.25 µg/mL was tested for each peptide. The bacterial inoculum was 1 × 10^6 cells/mL and incubated 1:1 with each test compound in a polypropylene 96-well round-bottom plate (655209, Greiner Bio-One, Kresmmuenster, Austria). Each MIC test was performed in three biological replicates, consisting of four technical replicates. Positive controls (without antibiotics) and negative controls (without bacteria) were included for each technical replicate. The reference antibiotic erythromycin was included to assure quality control. The plates were incubated for 24 h at 37 °C. The MIC value was defined as the lowest concentration of compound resulting in no visible bacterial growth.

The subject of another data set is E. coli ATCC 25922. The data set is classed as cell-based. As to conditions: for E. coli MIC (ATCC 25922): ATCC 25922, 24 h. The method, then:
as §1, §2

The nature of data set [1]: SPR, peptide binding to LUVs immobilized on L1 chip. As to conditions: for Kd: SPR steady state analysis, HEPES pH 7.4, room temperature, mean ± SD of triplicates; for koff PC/PG / koff PC: SPR, 10 mM HEPES pH 7.4 100 mM NaCl, room temperature, 400 s dissociation phase; for koff PC/PG: two-population fit averaged; for koff PC: two-population fit averaged (Figueira et al.); for SPR KP, DMPC: lipid/aqueous partition coefficient from SPR steady state (Figueira et al. method), DMPC LUVs; for SPR KP, DMPC / SPR KP, DMPC/PG: HEPES pH 7.4, ± SD of triplicate fits; for SPR KP, DMPC/PG: lipid/aqueous partition coefficient from SPR steady state, 95% DMPC 5% DMPG LUVs. The method, then: The interactions between AMPs 1–5 and LUVs were first investigated by SPR as a benchmark for the MST measurements. The data was acquired using the same lipid compositions as used in the MST data acquisition. LUVs were immobilized on an L1 chip, and an increasing concentration of AMPs was injected over them. […] The dissociation rate, koff, was calculated from the dissociation step, using the methodology presented by Figueira et al.[21], summarized in Table 2.
DMPC and DMPC:5% DMPG vesicles were prepared by solubilising a known weight of lipid in chloroform with a small amount of methanol to assist in the dissolution of the PG lipid head groups. The chloroform stock was dried in vacuo to produce a lipid film, which was further dried for additional 3 h. The lipid film was solubilised in 10 mM TRIS buffer (pH 7.4) containing 100 mM NaCl to yield a 20 mM milky lipid stock.
To produce the working vesicle stock, 1 mL of vesicle stock was extruded 20 times through a 0.1 µm filter using an Avanti Lipids mini-extruder. Vesicle size was confirmed using a Malvern Zetasizer Nano ZS (Malvern Panalytical Ltd, Malvern, United Kingdom).
The SPR measurements were performed using a T200 Biacore instrument (GE Healthcare, Oslo, Norway) at room temperature. An L1 chip was covered with extruded DMPC liposomes (1 mM in 10 mM HEPES buffer pH 7.4 with 100 mM NaCl) using a flowrate of 2 µL/min for 2400 s. Chip coverage was tested by injection of 0.1 mg/mL of bovine serum albumin for 1 min at 30 µL/min, with a change of < 400 RU indicating sufficient coverage.
The liposome surface was stabilized after each injection by three subsequent injections of 10 mM NaOH at 30 µL/min for 30 s each. Between experiments, the chip surface was cleaned by 20 mM CHAPS, 40 mM octyl-β-D-glucopyranoside and 30% ethanol in turn, with each solution injected for 1 min at 30 µL/min. The control flow cell was treated identically, with the exception that only the HEPES buffer solution was injected. The results were processed using in-house MATLAB scripts (MATLAB R2020a; scripts are available at https://github.com/MarJakubec).
KD was obtained from a steady state analysis using the intensities at the 190 s dissociation time, using Eq. (1):[21]1 Req=cRmax/KD+c+Roff where Req is the response at the steady state equilibrium, c is the peptide concentration, Rmax is the maximum response and Roff the response offset.
KP was obtained from same steady state affinity values using the method presented by Figuera et al., Eq. (2):[21]2 RUS/RUL=γLKPMS/MLSW/1+σγLKPSW where RUS and RUL are the relative responses of solute (peptides) and lipids respectively, γL is the molar volume of the lipids, MS and ML are the molecular mass of solute and lipid, respectively, and [S]W is the concentration of solute in water. KP and σ are obtained from fitting (with σ being lipid to solute ratio).
For koff evaluation we have used the formalism of Figuera et al.[21] for linearization of the dissociation process, where we have identified the contribution from two different populations in the dissociation response. Koff values were then obtained by Eq. (3) and averaged by Eq. (4):3 SL(t)=αe^-koff,α^t+βe^-koff,β^t+SL,r 4 koff=αkoff,α+βkoff,β/α+β where SL is the linearized ratio of solute and lipid, α and β are individual populations, and SL,r is the retained solute fraction.
On the technique in general: In SPR one partner is held on a chip, and binding of the other changes the refractive index at the surface.

Setting [2] is: 95% DMPC 5% DMPG LUVs on L1 chip, read-out: SPR KD, DMPC/PG.
Where [3] appears, read: 95% DMPC 5% DMPG LUVs on L1 chip.

As for `N=C(N)NCCC[C@@H]1NC(=O)[C@H](CCCNC(=N)N)NC(=O)[C@H](Cc2c[nH]c3ccccc23)NC(=O)[C@H](Cc2c[nH]c3ccccc23)NC(=O)[C@H](Cc2c[nH]c3ccccc23)NC(=O)[C@H](CCCNC(=N)N)NC1=O` [compound 1] (cyclo(WWWRRR)), in the data set with S. aureus ATCC 9144, the “S. aureus MIC (ATCC 9144)” value was 4 µg/mL. Further, in the data set on E. coli ATCC 25922, the “E. coli MIC (ATCC 25922)” value came to 8 µg/mL. The Kd in data set [1] (setting [2]) came to 70 ± 1 µM. In data set [1] (DMPC LUVs on L1 chip), the Kd was determined as 142 ± 35 µM and the “koff PC” value is 0.22 ± 0.02 s⁻¹. In addition, the “koff PC/PG” value in data set [1] (setting [3]) is 0.19 ± 0.01 s⁻¹. For the same compound, in data set [1], the “SPR KP, DMPC” value is on record as 6.65 ± 0.80 × 10^3 and the “SPR KP, DMPC/PG” value is given as 12.71 ± 0.16 × 10^3.
Regarding `N=C(N)NCCC[C@@H]1NC(=O)[C@H](Cc2c[nH]c3ccccc23)NC(=O)[C@H](CCCNC(=N)N)NC(=O)[C@H](Cc2c[nH]c3ccccc23)NC(=O)[C@H](CCCNC(=N)N)NC(=O)[C@H](Cc2c[nH]c3ccccc23)NC1=O` [compound 2] (cyclo(WRWRWR)), in the data set on S. aureus ATCC 9144, the “S. aureus MIC (ATCC 9144)” value is on record as 32 µg/mL. Also, the “E. coli MIC (ATCC 25922)” value in the data set on E. coli ATCC 25922 was determined as 32 µg/mL. Further, the Kd in data set [1] (setting [2]) turned out to be 105 ± 7 µM. Further, in data set [1] (DMPC LUVs on L1 chip), the Kd was 318 ± 62 µM and the “koff PC” value was determined as 0.87 ± 0.19 s⁻¹. The “koff PC/PG” value in data set [1] (setting [3]) came to 0.48 ± 0.05 s⁻¹. Also, in data set [1], the “SPR KP, DMPC” value was 1.30 ± 0.09 × 10^3 and the “SPR KP, DMPC/PG” value is recorded as 3.16 ± 0.15 × 10^3.
Regarding `NCCCC[C@@H]1NC(=O)[C@H](CCCCN)NC(=O)[C@H](Cc2c[nH]c3ccccc23)NC(=O)[C@H](Cc2c[nH]c3ccccc23)NC(=O)[C@H](Cc2c[nH]c3ccccc23)NC(=O)[C@H](CCCCN)NC1=O` [compound 3] (cyclo(WWWKKK)), in the data set on S. aureus ATCC 9144, the “S. aureus MIC (ATCC 9144)” value is 32 µg/mL. Moreover, the “E. coli MIC (ATCC 25922)” value in the data set with E. coli ATCC 25922 was 8 µg/mL. Besides, in data set [1] (setting [2]), the Kd stood at 112 ± 15 µM. Moreover, in data set [1] (DMPC LUVs on L1 chip), the Kd came out at 302 ± 32 µM and the “koff PC” value came to 0.48 ± 0.07 s⁻¹. In data set [1] (setting [3]), the “koff PC/PG” value was 0.32 ± 0.05 s⁻¹. In data set [1], the “SPR KP, DMPC” value was 2.53 ± 0.08 × 10^3 and the “SPR KP, DMPC/PG” value is given as 5.16 ± 0.34 × 10^3.
With `NCCCC[C@@H]1NC(=O)[C@H](Cc2c[nH]c3ccccc23)NC(=O)[C@H](CCCCN)NC(=O)[C@H](Cc2c[nH]c3ccccc23)NC(=O)[C@H](CCCCN)NC(=O)[C@H](Cc2c[nH]c3ccccc23)NC1=O` [compound 4] (cyclo(WKWKWK)), the “S. aureus MIC (ATCC 9144)” value with S. aureus ATCC 9144 is on record as 128 µg/mL. For the same compound, the “E. coli MIC (ATCC 25922)” value in the data set with E. coli ATCC 25922 worked out at 64 µg/mL. The Kd in data set [1] (setting [2]) came to 474 ± 45 µM. Further, in data set [1] (DMPC LUVs on L1 chip), the Kd was 712 ± 27 µM and the “koff PC” value is 0.90 ± 0.24 s⁻¹. Moreover, the “koff PC/PG” value in data set [1] (setting [3]) is 1.32 ± 0.05 s⁻¹. Also, in data set [1], the “SPR KP, DMPC” value is 0.53 ± 0.01 × 10^3 and the “SPR KP, DMPC/PG” value is on record as 0.63 ± 0.03 × 10^3.
In the case of `CC(C)C[C@@H]1NC(=O)[C@@H](CCCNC(=N)N)NC(=O)[C@H](CCCCN)NC(=O)[C@H](CC(N)=O)NC(=O)[C@@H](Cc2c[nH]c3ccccc23)NC(=O)[C@H](Cc2c[nH]c3ccccc23)NC1=O` [compound 5] (cyclo(LW[dW]NK[dR])), the “S. aureus MIC (ATCC 9144)” value in the data set with S. aureus ATCC 9144 is on record as > 256 µg/mL. Besides, the “antimicrobial activity against tested strain” value with S. aureus ATCC 9144 (S. aureus ATCC 9144, statement in text) is “inactive”; in the data set on E. coli ATCC 25922 (E. coli ATCC 25922, statement in text) it was “inactive”. Further, the “E. coli MIC (ATCC 25922)” value in the data set with E. coli ATCC 25922 was > 256 µg/mL. Besides, the Kd in data set [1] (setting [2]) came to 1030 ± 58 µM; in data set [1] (DMPC LUVs on L1 chip) it was 2550 ± 493 µM. The “koff PC/PG” value in data set [1] (setting [3]) came out at 1.75 ± 0.16 s⁻¹. Also, the “koff PC” value in data set [1] (DMPC LUVs on L1 chip) amounted to 1.76 ± 0.12 s⁻¹. The “SPR KP, DMPC” value in data set [1] is given as 0.28 ± 0.01 × 10^3. The “SPR KP, DMPC/PG” value in data set [1] is 0.40 ± 0.02 × 10^3.
